The values below come from ChEMBL document CHEMBL1128571, “Acylshikonin analogues: synthesis and inhibition of DNA topoisomerase-I” (J Med Chem, 1995).

pIC50: −log10 of the molar value. Bounds are passed on as bounds.

The test concerns the target T1, DNA topoisomerase 1 (Homo sapiens, UniProt P11387).
T1 sequence (P11387 whole entry): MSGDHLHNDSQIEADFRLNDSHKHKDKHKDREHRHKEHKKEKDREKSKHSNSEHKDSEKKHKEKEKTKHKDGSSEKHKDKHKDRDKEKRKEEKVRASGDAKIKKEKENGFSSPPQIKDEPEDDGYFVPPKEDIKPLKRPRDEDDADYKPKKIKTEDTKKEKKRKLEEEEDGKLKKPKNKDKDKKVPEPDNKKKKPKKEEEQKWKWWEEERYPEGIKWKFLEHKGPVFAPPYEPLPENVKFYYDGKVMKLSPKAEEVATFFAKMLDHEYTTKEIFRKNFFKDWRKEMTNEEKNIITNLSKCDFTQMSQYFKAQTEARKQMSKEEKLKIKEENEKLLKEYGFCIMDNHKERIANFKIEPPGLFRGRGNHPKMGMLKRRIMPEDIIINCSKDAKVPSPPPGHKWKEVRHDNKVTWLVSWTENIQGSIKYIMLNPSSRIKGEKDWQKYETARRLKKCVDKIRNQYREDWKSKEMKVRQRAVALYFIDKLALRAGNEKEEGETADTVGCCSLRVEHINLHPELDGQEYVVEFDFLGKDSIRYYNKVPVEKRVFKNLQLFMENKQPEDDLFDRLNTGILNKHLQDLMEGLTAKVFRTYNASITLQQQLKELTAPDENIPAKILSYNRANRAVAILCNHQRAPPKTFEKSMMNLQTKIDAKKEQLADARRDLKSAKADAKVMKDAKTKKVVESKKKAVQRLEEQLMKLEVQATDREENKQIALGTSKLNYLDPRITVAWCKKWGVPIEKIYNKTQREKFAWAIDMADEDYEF
The test is described as follows: Inhibitory activity against DNA topoisomerase-1 obtained from Hela cells. Format: cell-based.
Take `CCCCCC(=O)O[C@H](CC=C(C)C)C1=CC(=O)c2c(O)ccc(O)c2C1=O`: the pIC50 – broadly, the IC50 on a negative log10 scale, so that one unit is a factor of ten – is 3.68.
With `CCCCCCCCCCCC(=O)O[C@H](CC=C(C)C)C1=CC(=O)c2c(O)ccc(O)c2C1=O` the figure was less than 3.20.
In the case of `CC/C=C/CC(=O)O[C@H](CC=C(C)C)C1=CC(=O)c2c(O)ccc(O)c2C1=O`, the pIC50 is 3.82.
Take `CCCCCCCC/C=C/CCCCCCCC(=O)O[C@H](CC=C(C)C)C1=CC(=O)c2c(O)ccc(O)c2C1=O`: the pIC50 is less than 3.20.
The compound `CC/C=C/C(=O)O[C@H](CC=C(C)C)C1=CC(=O)c2c(O)ccc(O)c2C1=O` had a pIC50 of 4.10.
For `CCCCCCCCCCCCCCCCCC(=O)O[C@H](CC=C(C)C)C1=CC(=O)c2c(O)ccc(O)c2C1=O`, the pIC50 is less than 3.20.
In turn, `CCCCCCCCCC(=O)O[C@H](CC=C(C)C)C1=CC(=O)c2c(O)ccc(O)c2C1=O` had a pIC50 of less than 3.20.
For `C=CCCC(=O)O[C@H](CC=C(C)C)C1=CC(=O)c2c(O)ccc(O)c2C1=O`, the pIC50 is 4.40.
Take `CC(C)=CC[C@@H](OC(=O)C(Cl)(Cl)Cl)C1=CC(=O)c2c(O)ccc(O)c2C1=O`: the pIC50 is 3.94.
In turn, `CC(C)=CC[C@@H](OC(=O)Cc1ccccc1)C1=CC(=O)c2c(O)ccc(O)c2C1=O` had a pIC50 of 3.65.
With `CC(C)=CC[C@@H](OC(=O)c1ccccc1)C1=CC(=O)c2c(O)ccc(O)c2C1=O` the figure was 3.82; with `CCCC(=O)O[C@H](CC=C(C)C)C1=CC(=O)c2c(O)ccc(O)c2C1=O`, 3.84.
With `CC(C)=CC[C@@H](OC(=O)CCl)C1=CC(=O)c2c(O)ccc(O)c2C1=O` the figure was 3.86; with `CC(C)=CC[C@@H](OC(=O)/C=C(C)/C=C/C=C(C)/C=C/C1=C(C)CCCC1(C)C)C1=CC(=O)c2c(O)ccc(O)c2C1=O`, less than 3.20; with `CCCCC/C=C/C/C=C/CCCCCCCC(=O)O[C@H](CC=C(C)C)C1=CC(=O)c2c(O)ccc(O)c2C1=O`, less than 3.20.
On to `CCC(=O)O[C@H](CC=C(C)C)C1=CC(=O)c2c(O)ccc(O)c2C1=O`, for which the pIC50 was 4.36.
`CC(C)=CC[C@@H](OC(=O)\C=C(C)/C=C/C=C(C)/C=C/C1=C(C)CCCC1(C)C)C1=CC(=O)c2c(O)ccc(O)c2C1=O` gave a pIC50 of less than 3.20.
Compound `C/C=C/C=C/C(=O)O[C@H](CC=C(C)C)C1=CC(=O)c2c(O)ccc(O)c2C1=O` gave a pIC50 of 3.89.
Compound `CCCCCCC(=O)O[C@H](CC=C(C)C)C1=CC(=O)c2c(O)ccc(O)c2C1=O` showed a pIC50 of 3.20.
In the case of `C=CCC/C=C/C(=O)O[C@H](CC=C(C)C)C1=CC(=O)c2c(O)ccc(O)c2C1=O`, the pIC50 was 3.90. Compared with the last compound, the pIC50 is 0.70 log units higher.
In turn, `CCCCCCCCCCCCCCCC(=O)O[C@H](CC=C(C)C)C1=CC(=O)c2c(O)ccc(O)c2C1=O` gave a pIC50 of less than 3.20.
The same measure for `CCC/C=C/C(=O)O[C@H](CC=C(C)C)C1=CC(=O)c2c(O)ccc(O)c2C1=O`: 3.82.
In turn, `C=CCCCCC(=O)O[C@H](CC=C(C)C)C1=CC(=O)c2c(O)ccc(O)c2C1=O` showed a negative logarithm of the IC50 (pIC50) of 3.60.
Consider `CCCCCCCCC(=O)O[C@H](CC=C(C)C)C1=CC(=O)c2c(O)ccc(O)c2C1=O`, for which the pIC50 is less than 3.20.
`CCCCCCCC(=O)O[C@H](CC=C(C)C)C1=CC(=O)c2c(O)ccc(O)c2C1=O` showed a pIC50 of less than 3.20.
In turn, `CCCCC(=O)O[C@H](CC=C(C)C)C1=CC(=O)c2c(O)ccc(O)c2C1=O` showed a negative logarithm of the IC50 (pIC50) of 3.79.
The same measure for `CC(C)=CC[C@@H](OC(=O)C(c1ccccc1)c1ccccc1)C1=CC(=O)c2c(O)ccc(O)c2C1=O`: less than 3.20; for `CCCCC/C=C/C/C=C/C/C=C/CCCCC(=O)O[C@H](CC=C(C)C)C1=CC(=O)c2c(O)ccc(O)c2C1=O`: less than 3.20; for `CC(=O)O[C@H](CC=C(C)C)C1=CC(=O)c2c(O)ccc(O)c2C1=O` [ACETYLSHIKONIN]: 4.35.
`CC(C)=CC[C@@H](OC(=O)C=C(C)C)C1=CC(=O)c2c(O)ccc(O)c2C1=O` [DIMETHYLACRYLSHIKONIN] gave a pIC50 of 4.11.
The compound `CC(C)=CC[C@@H](OC(=O)C(C)C)C1=CC(=O)c2c(O)ccc(O)c2C1=O` [ISOBUTYLSHIKONIN] showed a pIC50 of 4.08.
In the case of `CC(C)=CC[C@@H](O)C1=CC(=O)c2c(O)ccc(O)c2C1=O` [SHIKONIN], the pIC50 was 3.68.
